Reference: ChEMBL document CHEMBL3885881, “DrugMatrix”

Organism: Rattus norvegicus
Assay: DrugMatrix - Regimen: Daily Repeat
Format: toxicity, organism-based, Sprague-Dawley
Design: regimen Daily Repeat, gender Male, age 6-8 weeks
Conditions: in vivo, po, route oral GAVAGE, vehicle .5 % CMC; for ABSOLUTE BASOPHIL / ABSOLUTE EOSINOPHIL / ABSOLUTE LYMPHOCYTE / ABSOLUTE MONOCYTE / ABSOLUTE SEGMENTED NEUTROPHIL / BASOPHIL / EOSINOPHIL / ERYTHROCYTE COUNT / HEMATOCRIT / HEMOGLOBIN / LEUKOCYTE COUNT / LYMPHOCYTE / MEAN CORPUSCULAR HEMOGLOBIN / MEAN CORPUSCULAR HEMOGLOBIN CONCENTRATION / MEAN CORPUSCULAR VOLUME / MONOCYTE / NEUTROPHIL / NUCLEATED RED BLOOD CELLS / PLATELET COUNT: tissue Blood; for ALANINE AMINOTRANSFERASE / ALBUMIN / ALKALINE PHOSPHATASE / ASPARTATE AMINOTRANSFERASE / BLOOD UREA NITROGEN / CARBON DIOXIDE / CHLORIDE / CHOLESTEROL / CREATINE PHOSPHOKINASE / CREATININE / GLUCOSE / LACTATE DEHYDROGENASE / LIPASE / PHOSPHORUS / SODIUM / TOTAL BILIRUBIN / TOTAL PROTEIN / URIC ACID: tissue Plasma
[1] = 20 mg/kg, 72 h, dose level Low, time 3 day
[2] = 20 mg/kg, 120 h, dose level Low, time 5 day
[3] = 2000 mg/kg, 72 h, dose level High, time 3 day
[4] = 2000 mg/kg, 120 h, dose level High, time 5 day

Compound: NCCCC[C@H](N[C@@H](CCc1ccccc1)C(=O)O)C(=O)N1CCC[C@H]1C(=O)O [LISINOPRIL ANHYDROUS]
- ABSOLUTE BASOPHIL [1]: 0 CELLS/uL
- ABSOLUTE EOSINOPHIL [1]: 69 CELLS/uL
- ABSOLUTE LYMPHOCYTE [1]: 9482.67 CELLS/uL
- ABSOLUTE MONOCYTE [1]: 143.67 CELLS/uL
- ABSOLUTE SEGMENTED NEUTROPHIL [1]: 904.67 CELLS/uL
- BASOPHIL [1]: 0%
- EOSINOPHIL [1]: 0.67%
- ERYTHROCYTE COUNT [1]: 5.65 x10E6/uL
- HEMATOCRIT [1]: 34.1%
- HEMOGLOBIN [1]: 13.3 G/DL
- LEUKOCYTE COUNT [1]: 10.6 x10E3/uL
- LYMPHOCYTE [1]: 89.33%
- MEAN CORPUSCULAR HEMOGLOBIN [1]: 23.63 pg
- MEAN CORPUSCULAR HEMOGLOBIN CONCENTRATION [1]: 39 G/DL
- MEAN CORPUSCULAR VOLUME [1]: 60.5 fL
- MONOCYTE [1]: 1.33%
- NEUTROPHIL [1]: 8.67%
- NUCLEATED RED BLOOD CELLS [1]: 0 /100WBC
- PLATELET COUNT [1]: 1392 x10E3/uL
- ALANINE AMINOTRANSFERASE [1]: 44 u/L
- ALBUMIN [1]: 4.1 G/DL
- ALKALINE PHOSPHATASE [1]: 387 u/L
- ASPARTATE AMINOTRANSFERASE [1]: 70 u/L
- BLOOD UREA NITROGEN [1]: 22.67 mg/dL
- CARBON DIOXIDE [1]: 23.33 mmol/L
- CHLORIDE [1]: 101 MEQ/L
- CHOLESTEROL [1]: 80.33 mg/dL
- CREATINE PHOSPHOKINASE [1]: 236.67 u/L
- CREATININE [1]: 0.18 mg/dL
- GLUCOSE [1]: 166 mg/dL
- LACTATE DEHYDROGENASE [1]: 94.33 u/L
- LIPASE [1]: 10 u/L
- PHOSPHORUS [1]: 11.87 mg/dL
- SODIUM [1]: 140.73 MEQ/L
- TOTAL BILIRUBIN [1]: 0.23 mg/dL
- TOTAL PROTEIN [1]: 5.83 G/DL
- URIC ACID [1]: 2.13 mg/dL
- ABSOLUTE BASOPHIL [2]: 0 CELLS/uL
- ABSOLUTE EOSINOPHIL [2]: 0 CELLS/uL
- ABSOLUTE LYMPHOCYTE [2]: 11890.67 CELLS/uL
- ABSOLUTE MONOCYTE [2]: 94.67 CELLS/uL
- ABSOLUTE SEGMENTED NEUTROPHIL [2]: 1714.67 CELLS/uL
- BASOPHIL [2]: 0%
- EOSINOPHIL [2]: 0%
- ERYTHROCYTE COUNT [2]: 6.1 x10E6/uL
- HEMATOCRIT [2]: 36.67%
- HEMOGLOBIN [2]: 14.77 G/DL
- LEUKOCYTE COUNT [2]: 13.7 x10E3/uL
- LYMPHOCYTE [2]: 87%
- MEAN CORPUSCULAR HEMOGLOBIN [2]: 24.23 pg
- MEAN CORPUSCULAR HEMOGLOBIN CONCENTRATION [2]: 40.3 G/DL
- MEAN CORPUSCULAR VOLUME [2]: 60.07 fL
- MONOCYTE [2]: 0.67%
- NEUTROPHIL [2]: 12.33%
- NUCLEATED RED BLOOD CELLS [2]: 0 /100WBC
- PLATELET COUNT [2]: 1320.33 x10E3/uL
- ALANINE AMINOTRANSFERASE [2]: 51.33 u/L
- ALBUMIN [2]: 4.53 G/DL
- ALKALINE PHOSPHATASE [2]: 401 u/L
- ASPARTATE AMINOTRANSFERASE [2]: 81.67 u/L
- BLOOD UREA NITROGEN [2]: 22.33 mg/dL
- CARBON DIOXIDE [2]: 27.67 mmol/L
- CHLORIDE [2]: 96.33 MEQ/L
- CHOLESTEROL [2]: 70.67 mg/dL
- CREATINE PHOSPHOKINASE [2]: 297.33 u/L
- CREATININE [2]: 0.22 mg/dL
- GLUCOSE [2]: 158 mg/dL
- LACTATE DEHYDROGENASE [2]: 249 u/L
- LIPASE [2]: 9.67 u/L
- PHOSPHORUS [2]: 11.77 mg/dL
- SODIUM [2]: 139.17 MEQ/L
- TOTAL BILIRUBIN [2]: 0.17 mg/dL
- URIC ACID [2]: 2 mg/dL
- ABSOLUTE BASOPHIL [3]: 0 CELLS/uL
- ABSOLUTE EOSINOPHIL [3]: 42.33 CELLS/uL
- ABSOLUTE LYMPHOCYTE [3]: 11490 CELLS/uL
- ABSOLUTE MONOCYTE [3]: 124.67 CELLS/uL
- ABSOLUTE SEGMENTED NEUTROPHIL [3]: 1076.33 CELLS/uL
- BASOPHIL [3]: 0%
- EOSINOPHIL [3]: 0.33%
- ERYTHROCYTE COUNT [3]: 5.63 x10E6/uL
- HEMATOCRIT [3]: 33.57%
- HEMOGLOBIN [3]: 13.17 G/DL
- LEUKOCYTE COUNT [3]: 12.73 x10E3/uL
- LYMPHOCYTE [3]: 90%
- MEAN CORPUSCULAR HEMOGLOBIN [3]: 23.43 pg
- MEAN CORPUSCULAR HEMOGLOBIN CONCENTRATION [3]: 39.27 G/DL
- MEAN CORPUSCULAR VOLUME [3]: 59.63 fL
- MONOCYTE [3]: 1%
- NEUTROPHIL [3]: 8.67%
- NUCLEATED RED BLOOD CELLS [3]: 0 /100WBC
- PLATELET COUNT [3]: 1324.33 x10E3/uL
- ALANINE AMINOTRANSFERASE [3]: 40.33 u/L
- ALBUMIN [3]: 4.03 G/DL
- ALKALINE PHOSPHATASE [3]: 322.67 u/L
- ASPARTATE AMINOTRANSFERASE [3]: 68 u/L
- BLOOD UREA NITROGEN [3]: 26.67 mg/dL
- CARBON DIOXIDE [3]: 24.67 mmol/L
- CHLORIDE [3]: 101.33 MEQ/L
- CHOLESTEROL [3]: 71.67 mg/dL
- CREATINE PHOSPHOKINASE [3]: 262 u/L
- CREATININE [3]: 0.29 mg/dL
- GLUCOSE [3]: 155 mg/dL
- LACTATE DEHYDROGENASE [3]: 122.67 u/L
- LIPASE [3]: 9.67 u/L
- PHOSPHORUS [3]: 11.5 mg/dL
- SODIUM [3]: 141.1 MEQ/L
- TOTAL BILIRUBIN [3]: 0.13 mg/dL
- TOTAL PROTEIN [3]: 5.77 G/DL
- URIC ACID [3]: 1.53 mg/dL
- ABSOLUTE BASOPHIL [4]: 0 CELLS/uL
- ABSOLUTE EOSINOPHIL [4]: 43.33 CELLS/uL
- ABSOLUTE LYMPHOCYTE [4]: 10946.67 CELLS/uL
- ABSOLUTE MONOCYTE [4]: 86.67 CELLS/uL
- ABSOLUTE SEGMENTED NEUTROPHIL [4]: 1123.33 CELLS/uL
- BASOPHIL [4]: 0%
- EOSINOPHIL [4]: 0.33%
- ERYTHROCYTE COUNT [4]: 5.62 x10E6/uL
- HEMATOCRIT [4]: 34.17%
- HEMOGLOBIN [4]: 13.67 G/DL
- LEUKOCYTE COUNT [4]: 12.2 x10E3/uL
- LYMPHOCYTE [4]: 89.67%
- MEAN CORPUSCULAR HEMOGLOBIN [4]: 24.37 pg
- MEAN CORPUSCULAR HEMOGLOBIN CONCENTRATION [4]: 40 G/DL
- MEAN CORPUSCULAR VOLUME [4]: 60.8 fL
- MONOCYTE [4]: 0.67%
- NEUTROPHIL [4]: 9.33%
- NUCLEATED RED BLOOD CELLS [4]: 0 /100WBC
- PLATELET COUNT [4]: 1374 x10E3/uL
- ALANINE AMINOTRANSFERASE [4]: 43.33 u/L
- ALBUMIN [4]: 4.17 G/DL
- ALKALINE PHOSPHATASE [4]: 336.33 u/L
- ASPARTATE AMINOTRANSFERASE [4]: 74 u/L
- BLOOD UREA NITROGEN [4]: 29.67 mg/dL
- CARBON DIOXIDE [4]: 22.67 mmol/L
- CHLORIDE [4]: 103 MEQ/L
- CHOLESTEROL [4]: 72 mg/dL
- CREATINE PHOSPHOKINASE [4]: 214 u/L
- CREATININE [4]: 0.25 mg/dL
- GLUCOSE [4]: 167.67 mg/dL
- LACTATE DEHYDROGENASE [4]: 146.33 u/L
- LIPASE [4]: 9.67 u/L
- PHOSPHORUS [4]: 10.97 mg/dL
- SODIUM [4]: 141.47 MEQ/L
- TOTAL BILIRUBIN [4]: 0.13 mg/dL
- TOTAL PROTEIN [4]: 5.97 G/DL
- URIC ACID [4]: 1.9 mg/dL
